# In patent US20220184037A1, “PHARMACEUTICAL AGENTS TARGETING CANCER STEM CELLS” (THE JOHNS HOPKINS UNIVERSITY, priority 2020, published 2022):
# What was measured:
# Format in all cases: cell-based, human
# SOX2 = assay: Western blotting / flow cytometry of SOX2 expression in bladder cancer cells
# Protocol: (§1) Whole cell lysates were extracted using RIPA buffer (Thermo Scientific) supplemented with 10 μL/mL Halt™ Protease Inhibitor Cocktail Kit (Life Technologies) and 30 μL/mL Halt™ Phosphatase Inhibitor Cocktail Kit (Life Technologies). The protein concentrations were determined using a Pierce™ BCA Protein Assay Kit (Life Technologies), and the protein were separated on. NuPAGE 4-12% Bis-Tris Gel (Life Technologies) according to the manufacturer's protocol. COX2 (D5H5), NANOG (D73G4), OCT4 (D7O5Z), CD133 (A3G6K), Snail (C15D3), ZEBI (D80D3), Vimentin (D21H3), CDH2 (D4R1H), CDH1 (24E10), p-EGFR (D7A5), EGFR (D38B1), p-AKT (D9E), AKT (cat #, 9272), p-ERK (D13.14.4E), ERK (137F5), p-YAP1 (D9W2I), p-Src (cat #, 2101), Src (36D10), DNMT1 (D63A6), DNMT3A (D23G1), and DNMT3B (D7070) antibodies were obtained from Cell Signaling Technology (Danvers, Mass., USA), except for SOX2 (EPR3131; Abeam, Cambridge, USA), YAP1 (ab52771; Abeam), CD24 (cat #, AF5247-SP; R&D Systems, Minneapolis USA) and β-actin (A2228; Sigma-Aldrich). Secondary horseradish peroxidase (HRP)-conjugated antibodies were obtained from Cell Signaling Technology, and chemiluminescent detection of HRP-labeled antibodies was performed using Amersham ECL Prime Western Blotting Detection Reagent (GE Healthcare, Piscataway, USA). As loading control, β-actin was used.
# For extracellular staining, cells (1×10^6/100 μL stain buffer) were incubated with PE-Vio770-conjugated anti-human CD133 (293C3; Miltenyi Biotec, Auburn, USA) or PE-conjugated anti-human CD24 antibody (cat #, 560991; BD Biosciences) for 30 min at 4° C. in dark. PE-Vio770-conjugated anti-IgG1κ Isotype (cat #, 130-098-563; Miltenyi Biotec) and PE-conjugated IgG2a, κ Isotype (cat #, 555574; BD Biosciences) were used as control for CD133 and CD24 staining, respectively. Staining for intracellular SOX2 was carried out using the BD Cytofix/Cytopem Fixation/Permeabilization Kit (BD Biosciences) according to manufacturer's protocol. The cells were incubated with Alexa Fluor 647-conjugated anti-SOX2 antibody (cat #, 560302; BD Biosciences) for 40 min at 4° C. in dark. Alexa Fluor 647-conjugated anti-IgG2a, κ Isotype (cat #, 558053; BD Biosciences) was used as control. Data were acquired on a BD FACSCalibur flow cytometer (BD Biosciences) using BD CellQuest Pro software (BD Biosciences) and analyzed with FlowJo software v10.1 (Tree Star, Ashland, USA).
# YAP1 = assay: Western blotting of YAP1 expression in bladder cancer cells
# Protocol: as §1
# [1] = system: bladder cancer cells (urothelial CSCs); assay: Sphere formation assay
# Protocol: Sphere formation was induced by culturing cells (2×10^4/well) in […] F12 50/50 Mix (Mediatech) supplemented with B-27 (Life Technologies), 20 ng/mL FGF-basic (Peprotech), 20 ng/mL EGF (Peprotech). Cell culture was performed in ultra-low attachment 6 well plates (Corning, Lowell, USA) for 10 days. The medium was replaced every other day. Sphere formation was evaluated using the inverted phase-contrast microscope, and single sphere with a diameter larger than 100 gm was counted using NIS-Elements Microscope Imaging Software. To redifferentiate spheres, spheres were plated in standard growth medium with 10% FBS in dishes supporting cell attachment, and incubated for 7 days. For self-renewal assay, primary spheres were collected by gentle centrifugation (5 min at 400×g), dissociated with Stempro Accutase Cell Dissociation Reagent (Life Technologies), and mechanically disrupted with a pipette. The cell suspension was sieved through 40 μm cell strainer cap filter to achieve a single-cell suspension, and then equal numbers of alive cells were plated in ultralow attachment plates to generate the second spheres. Again, spheres were counted on day 14 and digested to generate the third Spheres. All the experiments were performed in triplicate and repeated at least three times.
# [2] = system: let-7 host gene MIRLET7BHG promoter; assay: Bisulfite sequencing of let-7 host gene promoter methylation; settings: 10 μM celecoxib, 2 μM PGE2, or 5 μM 5-Aza-dC for 5 days
# Protocol: Cell pellets were digested with 1% sodium dodecyl sulfate and 50 μg/mL proteinase K (Roche, Nutley, USA) at 48° C. overnight. Isolation of genomic DNA from cell lines was performed with the phenol-chloroform extraction protocol followed by ethanol precipitation. Bisulfite treatment was conducted using an EpiTect Bisulfite K ft (QIAGEN, Valencia, USA), and was subsequently amplified via PCR using primers as shown in the following table. PCR products were purified using the QIAquick Gel Extraction kit (Qiagen), and sequenced by Genewiz DNA sequencing service (Genewiz, South Plainfield, USA). The data were analyzed using the Sequence Scanner v1.0 software (Life technologies). A methylation frequency of ≥50% of total CpG sites within the amplified region was considered “methylation-positive”. For demethylation, cells ([…]) dissolved in 50% acetic acid or were mock-treated with phosphate buffered saline (PBS) including the same amount of acetic acid every 24 hours for 5 days. When combined with the histone deacetylase inhibitor TSA (Sigma), 300 nmol/L TSA was added to the medium for the final 24 hours.
# [3] = system: AKT and extracellular signal-related kinase (ERK); assay: Western blotting of AKT and ERK activation; settings: basal-type cells, erlotinib
# Protocol: as §1
# [4] = basal-type cells, 1 μM erlotinib
SMILES,"SOX2 expression (SOX2; COX2 inhibitor or EP4 antagonist alone (FIG. 2A-B, S7))","erlotinib-increased SOX2 expression (SOX2; basal-type cells, COX2 inhibitor added to erlotinib)",induction of YAP1 expression (YAP1; COX2 inhibitor added to erlotinib),sphere-forming ability / sphere formation ([1]; COX2 inhibitor or EP4 antagonist alone),"erlotinib-increased sphere formation ([1]; basal-type cells, COX2 inhibitor added to erlotinib (10 μM celecoxib, 72 hours))",promoter methylation of the let-7 host gene [2],level of SOX2 expression over time (SOX2; [4]),YAP1 expression (YAP1; [4]),"levels of YAP1 expression (YAP1; non-basal-type cells, erlotinib)",activation of AKT and ERK [3],"number of spheres ([1]; basal-type cells, 1 μM erlotinib for 72 hours)"
"Cc1ccc(-c2cc(C(F)(F)F)nn2-c2ccc(S(N)(=O)=O)cc2)cc1 [celecoxib, Celecoxib]",SOX2 downregulation,impaired,no longer able to induce YAP1 expression,repressed,impaired,demethylated,–,–,–,–,–
"C#Cc1cccc(Nc2ncnc3cc(OCCOC)c(OCCOC)cc23)c1 [erlotinib, Erlotinib]",–,–,–,–,–,–,decreased at 1 hour after treatment with erlotinib and then gradually increased,continuously decreased YAP1 expression,did not affect,suppressed activation,enriched number of spheres
